Several values for one entry are separate records, joined by “and”; a condition that tells them apart may be missing. Identical values can stand only once.
How the values were obtained:
CCRF-CEM = test: NCI single dose (10 µM) SRB screen; format: cell-based, human; details: leukaemia, 48 h
HL-60(TB) = test: NCI single dose (10 µM) SRB screen; format: cell-based, human; details: leukaemia, 48 h
K-562 = test: NCI single dose (10 µM) SRB screen; format: cell-based, human; details: leukaemia, 48 h
MOLT-4 = test: NCI single dose (10 µM) SRB screen; format: cell-based, human; details: leukaemia, 48 h
RPMI-8226 = test: NCI single dose (10 µM) SRB screen; format: cell-based, human; details: leukaemia, 48 h
A549/ATCC = test: NCI single dose (10 µM) SRB screen; format: cell-based, human; details: non-small cell lung cancer, 48 h
EKVX = test: NCI single dose (10 µM) SRB screen; format: cell-based, human; details: non-small cell lung cancer, 48 h
HOP-92 = test: NCI single dose (10 µM) SRB screen; format: cell-based, human; details: non-small cell lung cancer, 48 h
NCI-H23 = test: NCI single dose (10 µM) SRB screen; format: cell-based, human; details: non-small cell lung cancer, 48 h
NCI-H322M = test: NCI single dose (10 µM) SRB screen; format: cell-based; details: non-small cell lung cancer, 48 h
NCI-H460 = test: NCI single dose (10 µM) SRB screen; format: cell-based, human; details: non-small cell lung cancer, 48 h
COLO 205 = test: NCI single dose (10 µM) SRB screen; format: cell-based, human; details: colon cancer, 48 h
HCC-2998 = test: NCI single dose (10 µM) SRB screen; format: cell-based, human; details: colon cancer, 48 h
HCT-116 = test: NCI single dose (10 µM) SRB screen; format: cell-based, human; details: colon cancer, 48 h
HCT-15 = test: NCI single dose (10 µM) SRB screen; format: cell-based, human; details: colon cancer, 48 h
HT29 = test: NCI single dose (10 µM) SRB screen; format: cell-based, human; details: colon cancer, 48 h
SF-268 = test: NCI single dose (10 µM) SRB screen; format: cell-based, human; details: CNS cancer, 48 h
SF-295 = test: NCI single dose (10 µM) SRB screen; format: cell-based, human; details: CNS cancer, 48 h
SF-539 = test: NCI single dose (10 µM) SRB screen; format: cell-based, human; details: CNS cancer, 48 h
SNB-19 = test: NCI single dose (10 µM) SRB screen; format: cell-based, human; details: CNS cancer, 48 h
SNB-75 = test: NCI single dose (10 µM) SRB screen; format: cell-based, human; details: CNS cancer, 48 h
U251 = test: NCI single dose (10 µM) SRB screen; format: cell-based, human; details: CNS cancer, 48 h
LOX IMVI = test: NCI single dose (10 µM) SRB screen; format: cell-based, human; details: melanoma, 48 h
MALME-3M = test: NCI single dose (10 µM) SRB screen; format: cell-based, human; details: melanoma, 48 h
M14 = test: NCI single dose (10 µM) SRB screen; format: cell-based, human; details: melanoma, 48 h
MDA-MB-435 = test: NCI single dose (10 µM) SRB screen; format: cell-based, human; details: melanoma, 48 h
SK-MEL-2 = test: NCI single dose (10 µM) SRB screen; format: cell-based, human; details: melanoma, 48 h
UACC-257 = test: NCI single dose (10 µM) SRB screen; format: cell-based, human; details: melanoma, 48 h
IGROV1 = test: NCI single dose (10 µM) SRB screen; format: cell-based, human; details: ovarian cancer, 48 h
OVCAR-3 = test: NCI single dose (10 µM) SRB screen; format: cell-based, human; details: ovarian cancer, 48 h
OVCAR-4 = test: NCI single dose (10 µM) SRB screen; format: cell-based, human; details: ovarian cancer, 48 h
OVCAR-5 = test: NCI single dose (10 µM) SRB screen; format: cell-based, human; details: ovarian cancer, 48 h
OVCAR-8 = test: NCI single dose (10 µM) SRB screen; format: cell-based, human; details: ovarian cancer, 48 h
NCI/ADR-RES = test: NCI single dose (10 µM) SRB screen; format: cell-based, human; details: ovarian cancer, 48 h
SK-OV-3 = test: NCI single dose (10 µM) SRB screen; format: cell-based, human; details: ovarian cancer, 48 h
786-0 = test: NCI single dose (10 µM) SRB screen; format: cell-based, human; details: renal cancer, 48 h
A498 = test: NCI single dose (10 µM) SRB screen; format: cell-based, human; details: renal cancer, 48 h
ACHN = test: NCI single dose (10 µM) SRB screen; format: cell-based, human; details: renal cancer, 48 h
CAKI-1 = test: NCI single dose (10 µM) SRB screen; format: cell-based, human; details: renal cancer, 48 h
RXF 393 = test: NCI single dose (10 µM) SRB screen; format: cell-based, human; details: renal cancer, 48 h
SN12C = test: NCI single dose (10 µM) SRB screen; format: cell-based, human; details: renal cancer, 48 h
TK-10 = test: NCI single dose (10 µM) SRB screen; format: cell-based, human; details: renal cancer, 48 h
UO-31 = test: NCI single dose (10 µM) SRB screen; format: cell-based, human; details: renal cancer, 48 h
PC-3 = test: NCI single dose (10 µM) SRB screen; format: cell-based, human; details: prostate cancer, 48 h
MDA-MB-231 = test: NCI single dose (10 µM) SRB screen; format: cell-based, human; details: breast cancer, 48 h
HS578T = test: NCI single dose (10 µM) SRB screen; format: cell-based, human; details: breast cancer, 48 h
BT-549 = test: NCI single dose (10 µM) SRB screen; format: cell-based, human; details: breast cancer, 48 h
T-47D = test: NCI single dose (10 µM) SRB screen; format: cell-based, human; details: breast cancer, 48 h
MDA-MB-468 = test: NCI single dose (10 µM) SRB screen; format: cell-based, human; details: breast cancer, 48 h
NCI 60 cancer cell lines = test: NCI single dose (10 µM) SRB screen, mean over panel; format: cell-based, human; details: mean over 60 cell lines, 48 h
Staphylococcus aureus = test: Agar well diffusion method
Candida albicans = test: Agar well diffusion method
Aspergillus flavus = test: Agar well diffusion method

## CCOC(=O)C1=C(C)NC(C)=C(C(=O)OC)C1c1cccc(C#N)c1 (racemic) [Compound 2g, (±)-3-Ethyl 5-methyl 4-(3-cyanophenyl)-2,6-dimethyl-1,4-dihydropyridine-3,5-dicarboxylate]
CCRF-CEM
  GI% CCRF-CEM: – (Only GI% ≥ 10 are shown)
HL-60(TB)
  GI% HL-60(TB): – (Only GI% ≥ 10 are shown)
K-562
  GI% K-562: – (Only GI% ≥ 10 are shown)
MOLT-4
  GI% MOLT-4: – (Only GI% ≥ 10 are shown)
RPMI-8226
  GI% RPMI-8226: – (Only GI% ≥ 10 are shown)
A549/ATCC
  GI% A549/ATCC: – (Only GI% ≥ 10 are shown)
EKVX
  GI% EKVX: – (Only GI% ≥ 10 are shown)
HOP-92
  GI% HOP-92: – (Only GI% ≥ 10 are shown)
NCI-H23
  GI% NCI-H23: – (Only GI% ≥ 10 are shown)
NCI-H322M
  GI% NCI-H322M: – (Only GI% ≥ 10 are shown)
NCI-H460
  GI% NCI-H460: – (Only GI% ≥ 10 are shown)
COLO 205
  GI% COLO 205: – (Only GI% ≥ 10 are shown)
HCC-2998
  GI% HCC-2998: – (Only GI% ≥ 10 are shown)
HCT-116
  GI% HCT-116: – (Only GI% ≥ 10 are shown)
HCT-15
  GI% HCT-15: – (Only GI% ≥ 10 are shown)
HT29
  GI% HT29: – (Only GI% ≥ 10 are shown)
SF-268
  GI% SF-268: – (Only GI% ≥ 10 are shown)
SF-295
  GI% SF-295: – (Only GI% ≥ 10 are shown)
SF-539
  GI% SF-539: – (Only GI% ≥ 10 are shown)
SNB-19
  GI% SNB-19: – (Only GI% ≥ 10 are shown)
SNB-75
  GI% SNB-75: – (Only GI% ≥ 10 are shown)
U251
  GI% U251: – (Only GI% ≥ 10 are shown)
LOX IMVI
  GI% LOX IMVI: – (Only GI% ≥ 10 are shown)
MALME-3M
  GI% MALME-3M: – (Only GI% ≥ 10 are shown)
M14
  GI% M14: – (Only GI% ≥ 10 are shown)
MDA-MB-435
  GI% MDA-MB-435: – (Only GI% ≥ 10 are shown)
SK-MEL-2
  GI% SK-MEL-2: – (Only GI% ≥ 10 are shown)
UACC-257
  GI% UACC-257: – (Only GI% ≥ 10 are shown)
IGROV1
  GI% IGROV1: – (Only GI% ≥ 10 are shown)
OVCAR-3
  GI% OVCAR-3: – (Only GI% ≥ 10 are shown)
OVCAR-4
  GI% OVCAR-4: – (Only GI% ≥ 10 are shown)
OVCAR-5
  GI% OVCAR-5: – (Only GI% ≥ 10 are shown)
OVCAR-8
  GI% OVCAR-8: – (Only GI% ≥ 10 are shown)
NCI/ADR-RES
  GI% NCI/ADR-RES: – (Only GI% ≥ 10 are shown)
SK-OV-3
  GI% SK-OV-3: – (Only GI% ≥ 10 are shown)
786-0
  GI% 786-0: – (Only GI% ≥ 10 are shown)
A498
  GI% A498: – (Only GI% ≥ 10 are shown)
ACHN
  GI% ACHN: – (Only GI% ≥ 10 are shown)
CAKI-1
  GI% CAKI-1: – (Only GI% ≥ 10 are shown)
RXF 393
  GI% RXF 393: – (Only GI% ≥ 10 are shown)
SN12C
  GI% SN12C: – (Only GI% ≥ 10 are shown)
TK-10
  GI% TK-10: – (Only GI% ≥ 10 are shown)
UO-31
  GI% UO-31: – (Only GI% ≥ 10 are shown)
PC-3
  GI% PC-3: – (Only GI% ≥ 10 are shown)
MDA-MB-231
  GI% MDA-MB-231: – (Only GI% ≥ 10 are shown)
HS578T
  GI% HS578T: 10%
BT-549
  GI% BT-549: – (Only GI% ≥ 10 are shown)
T-47D
  GI% T-47D: – (Only GI% ≥ 10 are shown)
MDA-MB-468
  GI% MDA-MB-468: – (Only GI% ≥ 10 are shown)
NCI 60 cancer cell lines
  Mean GI%: −1%
Staphylococcus aureus; Staphylococcus aureus, 24 h, read-out: Diameter of inhibition zone, S. aureus
  zone of inhibition at 1000 µg/mL: 22 mm
Staphylococcus aureus; relative to ciprofloxacin
  % activity index, S. aureus: 91% and 91.7%
Candida albicans; Candida albicans, 24 h, read-out: Diameter of inhibition zone, C. albicans
  zone of inhibition at 1000 µg/mL: 23 mm
Candida albicans; relative to clotrimazole
  % activity index, C. albicans: 85% and 85.2%
Aspergillus flavus; Aspergillus flavus, 24 h, read-out: Diameter of inhibition zone, A. flavus
  zone of inhibition at 1000 µg/mL: 24 mm
Aspergillus flavus; relative to clotrimazole
  % activity index, A. flavus: 96%

— PMC9481151, “Discovery of new symmetrical and asymmetrical nitrile-containing 1,4-dihydropyridine derivatives as dual kinases and P-glycoprotein inhibitors: synthesis, in vitro assays, and in silico studies” (Journal of Enzyme Inhibition and Medicinal Chemistry, 2022)
